Values joined by “and” are separate entries in the source; they are usually repeats but may differ in a detail not shown here. Equal values may be shown once. Where a name gives a salt, the structure may show the parent alone.
System: dopamine release in the rat prefrontal cortex
Experiment: Microdialysis: dopamine release in prefrontal cortex after I.P. administration
Format: in vivo
Conditions: for Dopamine release, individual animals / Dopamine release, MEAN: 0.3 mg/kg I.P.; for Dopamine release, individual animals: one column per animal R#11,12,18,23,29,30,17,24, hydrochloride; for Dopamine release, MEAN / DOPAMINE (% of respective basal) MEAN: n = 8; for DOPAMINE (% of respective basal) MEAN: SON-117 group 0.1 mg/kg I.P.
Procedure: The aim of the study was to evaluate, using microdialysis, the effects of an intraperitoneal (I.P.) administration in rats of three different doses of SON-117 on dopamine and its metabolites, serotonin and its metabolite (5-HIAA), and norepinephrine levels in prefrontal cortex.
Thirty-two adult male Wistar rats were used for the whole study (4 groups of eight animals planned for the study, Table 1).
Surgery was performed on rats weighing about 300 g at the beginning of the experiments. Rats were anaesthetized with Ketamine (50 mg/kg) & Xylazine (15 mg/kg) by intramuscular administration. The animals were placed in a stereotaxic apparatus in the flat-skull position at a constant setting of −3.3 mm between ear bars and the incisor bar. The animals were treated with a local anesthesic (xylocaine 1%, Astra Zeneca) and an analgesic (Temgesic, from Schering Plough, 0.05 mg/kg, s.c.). A rostrocaudal midline incision was made with a lancet to expose the dorsal skull surface. The “stereotaxic zero” was defined by the Bregma in accordance with Paxinos and Watson's atlas (1986). A hole was drilled in the skull with a drill and the meninges were pierced with a sterile needle to implant a CMA12 guide cannula which later received the dialysis probe.
Coordinates used for implanting guide cannula in prefrontal cortex from Bregma were anteroposterior 3.7 mm, mediolateral 0.8 mm, and dorsoventral −2 mm (top of the probe was at −5 mm). The guide cannula was fixed to the skull with two stainless steel screws (1.88 mm outside diameter) anchored. An application of dental cement was added. A plastic collar allowed each animal to be tethered to a Swivel assembly of the CMA 120 awake animal system. Following surgery, rats were kept in individual cages and allowed to recover for a minimum of 3-5 days before the experimentation. The rats were handled and put in plastic bowl for 10 min at least every day to habituate the animals to their new environment for the dialysis. An I.P. administration with saline was also performed every day.
Dialysis probes (CMA12/3 mm, membrane, 20 kD cut-off, Carnegie Medicine, Stockholm, Sweden), were carefully washed before inserting into the guide cannula. The wash was performed with the artificial cerebrospinal fluid (aCSF) medium (NaCl 147 mM, KCl 2.7 mM, CaCl2 1.2 mM, MgCl2 0.85 mM) at room temperature. The dialysis system was then equilibrated at 20° C. at a perfusion rate of 1 μl/min with a Carnegie pump (CMA100). All catheters (FEP tubing, internal volume of 1.2 μl/10 cm, and tubing adaptors) used for microdialysis were treated in the same conditions.
The probes duly prepared were inserted into the guide cannula and the CMA120 Swivel assembly secured to the animal using a plastic collar. Flow through the dialysis probe with aCSF was maintained at a rate of 1 μl/min during the whole experimentation. The first four fractions (corresponding to 2 hours) were discarded to avoid the effects of parenchymal disturbance and to ensure that an approximate steady-state level was reached. Fractions were then collected over a period of 8.5 h during which time the animals remained quiet. The dialysates were automatically collected with an autosampler (microfraction collector CMA 140, Carnegie Medicin) and stored at −80° C. until analysis. […] Perfusion was then maintained for 7 hours with aCSF. The dialysates (30 μl) were collected into 300 μl vials, transferred into dry ice and then kept frozen (−80° C.) until analysis. Frozen samples were shipped to a partner for analysis. At the end of the microdialysis study, a PBS with colored ink was perfused through the probe in order to visualize the dialyzed area.
Catecholamine assay: Concentrations of dopamine, DOPAC, HVA, 5-HIAA, 5-HT, and norepinephrin were determined for each sample by HPLC coupled with electrochemical detection.

[1] = T-30 min-T0 (before administration)
[2] = T-1 h 30-T-1 h (before administration)
[3] = T-1 h-T-30 min (before administration)

Cc1nnc(-c2cc3c(OC[C@@H](O)CN4CCC(c5ccc(Cl)c(Cl)c5)CC4)cccc3o2)o1 [SON-117, (S)-1-(4-(3,4-dichlorophenyl)piperidino)-3-(2-(5-methyl-1,3,4-oxadiazol-2-yl)benzo(b)furan-4-yloxy)-2-propanol hydrochloride]
Dopamine release, individual animals (T5 h 30-T6 h): 1190.31 % of respective basal and 66.72 % of respective basal and 285.31 % of respective basal and 29.48 % of respective basal and 247.57 % of respective basal and 111.91 % of respective basal and 52.03 % of respective basal and 128.48 % of respective basal | Dopamine release, MEAN (T5 h-T5 h 30): 263.19 % of respective basal | Dopamine release, individual animals (T5 h-T5 h 30): 611.23 % of respective basal and 37.39 % of respective basal and 1036.44 % of respective basal and 30.12 % of respective basal and 108.05 % of respective basal and 81.56 % of respective basal and 80.36 % of respective basal and 120.37 % of respective basal | Dopamine release, MEAN (T6 h 30-T7 h): 297.55 % of respective basal | Dopamine release, individual animals (T6 h 30-T7 h): 331.87 % of respective basal and 230.42 % of respective basal and 224.57 % of respective basal and 11.34 % of respective basal and 202.06 % of respective basal and 117.28 % of respective basal | Dopamine release, MEAN (T6 h-T6 h 30): 267.65 % of respective basal | Dopamine release, individual animals (T6 h-T6 h 30): 879.91 % of respective basal and 122.45 % of respective basal and 101.84 % of respective basal and 10.68 % of respective basal and 188.10 % of respective basal and 103.08 % of respective basal and 135.89 % of respective basal and 599.24 % of respective basal | Dopamine release, MEAN [1]: 100.22 % of respective basal | Dopamine release, MEAN [2]: 104.26 % of respective basal | Dopamine release, MEAN [3]: 98.66 % of respective basal | dopamine levels, increase (not statistically significant) (SON-117 0.1 mg/kg I.P., from 4.5 h to 7 h): 353% | dopamine levels, increase (not statistically significant) (SON-117 0.1 mg/kg I.P., from T1.5 h and 2.5 h): 287% | dopamine levels, increase (not statistically significant) (SON-117 0.3 mg/kg I.P., from 5.5 h to 7 h): 298% | dopamine levels, slight increase (not statistically significant) (SON-117 3 mg/kg IP, at 1.5 h): 169% | dopamine levels, slight increase, max. (not statistically significant) (SON-117 3 mg/kg IP, from 6 h to 7 h): 167% | release of dopamine, trend (SON-117 0.1 and 0.3 mg/kg, from 5.5 h): trend for an increased release | dopamine, difference to the citalopram group (two-way ANOVA) (SON-117 at the three doses tested, in function of time): no significant differences | DOPAMINE (% of respective basal) MEAN (T0-T30 min): 133.37 % of respective basal | DOPAMINE (% of respective basal) MEAN (T30-T1 h): 103.29 % of respective basal | DOPAMINE (% of respective basal) MEAN (T1 h 30-T2 h): 151.81 % of respective basal | DOPAMINE (% of respective basal) MEAN (T1 h-T1 h 30): 123.06 % of respective basal | DOPAMINE (% of respective basal) MEAN (T2 h 30-T3 h): 138.45 % of respective basal | DOPAMINE (% of respective basal) MEAN (T2 h-T2 h 30): 286.96 % of respective basal | DOPAMINE (% of respective basal) MEAN (T3 h 30-T4 h): 155.83 % of respective basal | DOPAMINE (% of respective basal) MEAN (T3 h-T3 h 30): 150.01 % of respective basal | DOPAMINE (% of respective basal) MEAN (T4 h 30-T5 h): 240.84 % of respective basal | DOPAMINE (% of respective basal) MEAN (T4 h-T4 h 30): 215.81 % of respective basal | DOPAMINE (% of respective basal) MEAN (T5 h 30-T6 h): 188.21 % of respective basal | DOPAMINE (% of respective basal) MEAN (T5 h-T5 h 30): 183.94 % of respective basal | DOPAMINE (% of respective basal) MEAN (T6 h 30-T7 h): 353.25 % of respective basal | DOPAMINE (% of respective basal) MEAN (T6 h-T6 h 30): 226.43 % of respective basal | DOPAMINE (% of respective basal) MEAN [1]: 105.18 % of respective basal | DOPAMINE (% of respective basal) MEAN [2]: 100.9 % of respective basal | DOPAMINE (% of respective basal) MEAN [3]: 91.46 % of respective basal
